Results on twelve molecules are retold here after patent publication US9644194B2, “Cold-adapted protease derived from Pseudoalteromonas arctica PAMC 21717 and uses thereof” (KOREA INSTITUTE OF OCEAN SCIENCE & TECHNOLOGY, priority 2014, dated 2017).

Series [1] deals with W-Pro21717. Briefly: Activity and stability of W-Pro21717 in the presence of metal ions and surfactants. It is filed as biochemical, Pseudoalteromonas arctica PAMC 21717. Conditions: 1 mM, on ice for 1 hour, FIG. 3; for influence on the activity of W-Pro21717: result in words. The method, then:
In order to analyze the influence of metal ions and detergents, W-[…] was allowed to react with a standard buffer containing 1 mM BaCl2, CuSO4, MgSO4, CaCl2, ZnSO4, FePO4, KCl, NaCl, […], sodium linear alkylbenzene sulfonate (LAS) or SDS on ice for 1 hour. In addition, the compatibility of W-[…] with a commercial detergent (LG Household & Health Care, Korea; containing subtilisin Carlsberg) was analyzed using skim milk at temperatures of 10° C. and 30° C.

The subject of series [2] is W-Pro21717. Briefly: Effect of protease inhibitors on W-Pro21717 activity. It is filed as biochemical, Pseudoalteromonas arctica PAMC 21717. The conditions noted are these: result in words. As for the experimental part: (§1) The reaction solution was centrifuged, and then filtered through a filter having a pore size of 0.45 μm, and the filtrate was mixed and reacted with Folin & Ciocalteu's phenol solution and 500 mM sodium carbonate solution at 37° C. for 30 minutes. Next, the enzymatic activity of the reaction product was measured at 660 nm based on an L-tyrosine standard curve, and an amino acid production of 1 nmole/min/mg at 25° C. was defined as the activity of 1 unit of protease.
The kind of W-Pro21717 was analyzed by reactions with various protease inhibitors.

A short description of series [3]: Substrate specificity of W-Pro21717 with synthetic peptides. It is filed as biochemical. The conditions noted are these: 25° C., 10 minutes, 410 nm. As for the experimental part:
The substrate specificity of W-Pro21717 was analyzed using 5 mM of each of the following 7 different synthetic peptides: N-succinyl-Ala-Ala-Val-p-nitroanilide (AAV), N-succinyl-Ala-Ala-Pro-Leu-p-nitroanilide (AAPL), N-succinyl-Ala-Ala-Ala-p-nitroanilide (AAA), N-succinyl-Gly-Gly-Phe-p-nitroanilide (GGF), N-succinyl-Thr-Leu-Val-p-nitroanilide (TLV), N-succinyl-Ala-Ala-Pro-Phe-p-nitroanilide (AAPF), and N-succinyl-Ala-Ala-Val-Ala-p-nitroanilide (AAVA). W-Pro21717 was allowed to react with a standard buffer containing 0.83 mM substrate at 25° C. for 10 minutes, and then the relative activity thereof was measured at 410 nm.

Series [4] deals with azocasein. As to the kind of experiment: Activity and stability of R-Pro21717 with temperature and pH. Type of series: biochemical. As for the experimental part: In order to determine a temperature optimal for the activity of the protease, R-Pro21717 was allowed to react at varying temperatures of 0˜70° C., and then analyzed. The stability of R-Pro21717 against temperature was analyzed by allowing R-Pro21717 at varying temperatures of 0˜70° C. for 1 hour, and then allowing R-Pro21717 to react a 0.65% azocasein-containing standard buffer at 30° C. for 30 minutes. As a control enzyme, Carlsberg subtilisin was used.
In order to determine a pH optimal for the activity of the protease, R-Pro21717-containing buffers having varying pHs were allowed to react at 30° C., and then analyzed. The stability of R-Pro21717 against pH was analyzed by allowing R-Pro21717-containing buffers having varying pHs to react on ice for 1 hour, and then reacting R-Pro21717 in 0.65% azocasein-containing standard buffer at 30° C. for 30 minutes. Carlsberg subtilisin was used as a control enzyme and analyzed at a reaction temperature of 40° C.

In series [5] the test system is azocasein. Briefly: Activity and stability of W-Pro21717 with temperature and pH. Type of series: biochemical. As for the experimental part: as §1, with “In order to measure the degradation activity of W-Pro21717, the cultured PAMC 21717 cells were centrifuged at 4° C. at 12,000×g for 30 minutes, and the supernatant was mixed with 50 mM sodium phosphate buffer (pH 7.6) containing 0.65% azocasein substrate, and was allowed to at 25° C. for 1 hour, and then additionally allowed to react at 37° C. for 1 hour after adding 110 mM trichloroacetic acid thereto. The” for “The”
A temperature optimal for the activity of W-Pro21717 was analyzed in the temperature range of 0 to 60° C., and the optimum pH was analyzed by 1-hour reactions in 50 mM sodium acetate (pH 2.0-6.0), 50 mM potassium phosphate (pH 7.0-10.0) and 50 mM sodium tetraborate (pH 10.0). As a control, 3 μg of the commercial protease Carlsberg subtilisin was used.

Turning to `[Cl-].[K+]` [K^+, KCl], the “influence on the activity of W-Pro21717” value in the series on W-Pro21717 [1] is “did not influence”.
In the case of `O=S(=O)(F)Cc1ccccc1` [PMSF], the “effect of inhibitor on the activity of W-Pro21717” value (“effect of inhibitor” for short) in the series on W-Pro21717 [2] is listed as “inhibited”.
With `O=S(=O)([O-])[O-].[Cu+2]` [CuSO4], in the series with W-Pro21717 [1], the “increase of the activity of W-Pro21717” value is on record as “about 60%”.
For `[Fe+2]` [Fe^2+, FePO4], the “influence on the activity of W-Pro21717” value with W-Pro21717 [1] is given as “did not influence”.
Regarding `O=S(=O)([O-])[O-].[Zn+2]` [Zn^2+, ZnSO4], the “influence on the activity of W-Pro21717” value with W-Pro21717 [1] is listed as “did not influence”.
Regarding `O=C(O)CN(CCN(CC(=O)O)CC(=O)O)CC(=O)O` [EDTA], the “effect of inhibitor” value in the series with W-Pro21717 [2] is on record as “slightly inhibited”.
Consider `[Cl][Hg][Cl]` [HgCl2], for which the “effect of inhibitor” value with W-Pro21717 [2] is given as “inhibited”.
Take `[Ca+2].[Cl-].[Cl-]` [Ca^2+, CaCl2]: the “influence on the activity of W-Pro21717” value in the series with W-Pro21717 [1] is reported as “did not influence”.
Consider `[Cl-].[Na+]` [Na^2+, NaCl], for which the “influence on the activity of W-Pro21717” value with W-Pro21717 [1] is listed as “did not influence”.
As to `[Ba+2].[Cl-].[Cl-]` [Ba^2+, BaCl2], the “influence on the activity of W-Pro21717” value in the series with W-Pro21717 [1] was “did not influence”.
The same measure, in the same setting: as for `O=S(=O)([O-])[O-].[Mg+2]` [Mg^2+, MgSO4], the entry is “did not influence”.

B1: Subtilisin Carlsberg: commercial protease used as control enzyme (protein, UniProt P00780 106-379, looked up)
Subtilisin Carlsberg: AQTVPYGIPLIKADKVQAQGFKGANVKVAVLDTGIQASHPDLNVVGGASFVAGEAYNTDGNGHGTHVAGTVAALDNTTGVLGVAPSVSLYAVKVLNSSGSGSYSGIVSGIEWATTNGMDVINMSLGGASGSTAMKQAVDNAYAKGVVVVAAAGNSGSSGNTNTIGYPAKYDSVIAVGAVDSNSNRASFSSVGAELEVMAPGAGVYSTYPTNTYATLNGTSMASPHVAGAAALILSKHPNLSASQVRNRLSSTATYLGSSFYYGKGLINVEAAAQ
For B1, the “Relative activity (%)” value in series [3] (substrate AAPF) is reported as 100%; in series [3] (substrate GGF), 0%. Moreover, in the series with azocasein [4] (1 hour at temperature, then azocasein 30° C. 30 minutes, FIG. 9B), the “temperature at which stability / enzymatic activity decreases” value is ≥ 50 °C. The “pH of highest activity” value in the series on azocasein [4] (FIG. 9C) was “same results as those of R-Pro21717”. Moreover, the “pH optimal for the stability” value in the series with azocasein [4] (on ice for 1 hour, FIG. 9D) is listed as “same results as those of R-Pro21717”. Besides, the “proteolytic activity at low temperature relative to the highest activity” value with azocasein [4] (printed 'at or') is “did not show proteolytic activity”. Besides, the “temperature optimal for the activity” value stood at 60 °C in the series on azocasein [4] (tested 0˜70° C., FIG. 9A) and 60 °C with azocasein [5] (tested 0 to 60° C., FIG. 2A). Moreover, the “decrease in activity after a reaction at 40° C. for 1 hour” value in the series with azocasein [5] (thermal stability, FIG. 2B) amounted to 80%.
